Measured values taken from patent publication US12708632B2 (Jazz Pharmaceuticals Research UK Limited, priority 2020, dated 2026).
“Also recorded” adds a separate entry of the source.

Test system: seizures associated with Cortical Dysplasia and Cortical Brain Malformation
Test: Open label, expanded-access program of botanically derived purified CBD: caregiver-diary seizure frequency
Type: in vivo, human patients
Parameters: reduction in atonic seizures over the treatment period / reduction in tonic seizures over the treatment period / reduction in focal seizures without impairment over the treatment period: concentration or dose not given beside the values
Conditions: for Seizure frequency: Focal with impairment: baseline 49.0; for Seizure frequency: Atonic: baseline 80.0
Method: Subjects were required to be on one or more AEDs at stable doses for a minimum of two weeks prior to baseline and to have stable vagus nerve stimulation (VNS) settings and ketogenic diet ratios for a minimum of four weeks prior to baseline.
Dose was then increased weekly by 5 mg/kg/day to a goal of 20 to 25 mg/kg/day.
A maximum dose of 50 mg/kg/day could be utilised for patients who were tolerating the medication but had not achieved seizure control; these patients had further weekly titration by 5 mg/kg/day.
Modifications were made to concomitant AEDs as per clinical indication.
Seizure frequency, intensity, and duration were recorded by caregivers in a diary during a baseline period of at least 28 days. Changes in seizure frequency relative to baseline were calculated after at least 2 weeks and at defined timepoints of treatment.
Patients may be defined as responders if they had more than 50% reduction in seizure frequency compared to baseline. the percent change in seizure frequency was calculated as follows: […]
The percent change of seizure frequency may be calculated for any time interval where seizure number has been recorded. For the purpose of this example the percent change of seizure frequency for the end of the treatment period was calculated as follows: […]

## C=C(C)[C@@H]1CCC(C)=C[C@H]1c1c(O)cc(CCCCC)cc1O [CBD, cannabidiol]
Patient 4, 96 weeks, CBD 50.0 mg/kg/day, baseline 196.0
  Seizure frequency: Tonic: 22.0 seizures per week
Patient 4, 120 weeks, CBD 42.6 mg/kg/day, baseline 196.0
  Seizure frequency: Tonic: 16.0 seizures per week
Patient 4, 132 weeks, CBD 49.8 mg/kg/day, baseline 196.0
  Seizure frequency: Tonic: 36.0 seizures per week
Patient 4, treated for 132 weeks, vs baseline
  reduction in tonic seizures over the treatment period: 81.6%
Patient 5, 4 weeks, CBD 20.0 mg/kg/day, baseline 4.0
  Seizure frequency: Tonic: 3.2 seizures per week
Patient 5, 8 weeks, CBD 35.0 mg/kg/day, baseline 4.0
  Seizure frequency: Tonic: 11.0 seizures per week
Patient 5, 12 weeks, CBD 50.0 mg/kg/day, baseline 4.0
  Seizure frequency: Tonic: 1.0 seizures per week
Patient 5, 24 weeks, CBD 50.0 mg/kg/day, baseline 4.0
  Seizure frequency: Tonic: 0.0 seizures per week
Patient 5, 36 weeks, CBD 47.0 mg/kg/day, baseline 4.0
  Seizure frequency: Tonic: 0.0 seizures per week
Patient 5, 48 weeks, CBD 46.0 mg/kg/day, baseline 4.0
  Seizure frequency: Tonic: 1.0 seizures per week
Patient 5, 60 weeks, CBD 49.0 mg/kg/day, baseline 4.0
  Seizure frequency: Tonic: 1.0 seizures per week
Patient 5, 72 weeks, CBD 50.0 mg/kg/day, baseline 4.0
  Seizure frequency: Tonic: 0.0 seizures per week
Patient 5, 84 weeks, CBD 50.0 mg/kg/day, baseline 4.0
  Seizure frequency: Tonic: 0.0 seizures per week
Patient 5, 96 weeks, CBD 49.7 mg/kg/day, baseline 4.0
  Seizure frequency: Tonic: 0.0 seizures per week
Patient 5, 108 weeks, CBD 49.7 mg/kg/day, baseline 4.0
  Seizure frequency: Tonic: 0.0 seizures per week
Patient 5, 132 weeks, CBD 49.1 mg/kg/day, baseline 4.0
  Seizure frequency: Tonic: 0.0 seizures per week
Patient 5, 144 weeks, CBD 50.0 mg/kg/day, baseline 4.0
  Seizure frequency: Tonic: 0.0 seizures per week
Patient 5, treated for 144 weeks, vs baseline
  reduction in tonic seizures over the treatment period: 100%
Patient 6, 4 weeks, CBD 25.0 mg/kg/day, baseline 20.0
  Seizure frequency: Focal without impairment: 8.0 seizures per week
Patient 6, 8 weeks, CBD 25.0 mg/kg/day, baseline 20.0
  Seizure frequency: Focal without impairment: 0.0 seizures per week
Patient 6, 16 weeks, CBD 25.0 mg/kg/day, baseline 20.0
  Seizure frequency: Focal without impairment: 4.0 seizures per week
Patient 6, 24 weeks, CBD 25.0 mg/kg/day, baseline 20.0
  Seizure frequency: Focal without impairment: 2.0 seizures per week
Patient 6, treated for 24 weeks, vs baseline
  reduction in focal seizures without impairment over the treatment period: 90%
Patient 7, 2 weeks, CBD 10.0 mg/kg/day
  Seizure frequency: Focal with impairment: 22.0 seizures per week
Patient 7, 2 weeks, CBD 10.0 mg/kg/day, baseline 233.0
  Seizure frequency: Focal without impairment: 182.0 seizures per week
Patient 7, 4 weeks, CBD 20.0 mg/kg/day
  Seizure frequency: Focal with impairment: 26.0 seizures per week
Patient 7, 4 weeks, CBD 20.0 mg/kg/day, baseline 233.0
  Seizure frequency: Focal without impairment: 62.0 seizures per week
Patient 7, 8 weeks, CBD 25.0 mg/kg/day
  Seizure frequency: Focal with impairment: 35.0 seizures per week
Patient 7, 8 weeks, CBD 25.0 mg/kg/day, baseline 233.0
  Seizure frequency: Focal without impairment: 125.0 seizures per week
Patient 7, 12 weeks, CBD 25.0 mg/kg/day
  Seizure frequency: Focal with impairment: 40.0 seizures per week
Patient 7, 12 weeks, CBD 25.0 mg/kg/day, baseline 233.0
  Seizure frequency: Focal without impairment: 112.0 seizures per week
Patient 7, 16 weeks, CBD 25.0 mg/kg/day
  Seizure frequency: Focal with impairment: 66.7 seizures per week
Patient 7, 16 weeks, CBD 25.0 mg/kg/day, baseline 233.0
  Seizure frequency: Focal without impairment: 93.3 seizures per week
Patient 7, 24 weeks, CBD 25.0 mg/kg/day
  Seizure frequency: Focal with impairment: 62.4 seizures per week
Patient 7, 24 weeks, CBD 25.0 mg/kg/day, baseline 233.0
  Seizure frequency: Focal without impairment: 96.8 seizures per week
Patient 7, 36 weeks, CBD 20.0 mg/kg/day
  Seizure frequency: Focal with impairment: 94.8 seizures per week
Patient 7, 36 weeks, CBD 20.0 mg/kg/day, baseline 233.0
  Seizure frequency: Focal without impairment: 39.7 seizures per week
Patient 7, 48 weeks, CBD 20.0 mg/kg/day
  Seizure frequency: Focal with impairment: 62.5 seizures per week
Patient 7, 48 weeks, CBD 20.0 mg/kg/day, baseline 233.0
  Seizure frequency: Focal without impairment: 92.9 seizures per week
Patient 7, 60 weeks, CBD 20.0 mg/kg/day
  Seizure frequency: Focal with impairment: 72.8 seizures per week
Patient 7, 60 weeks, CBD 20.0 mg/kg/day, baseline 233.0
  Seizure frequency: Focal without impairment: 141.2 seizures per week
Patient 7, 72 weeks, CBD 20.0 mg/kg/day
  Seizure frequency: Focal with impairment: 179.7 seizures per week
Patient 7, 72 weeks, CBD 20.0 mg/kg/day, baseline 233.0
  Seizure frequency: Focal without impairment: 139.4 seizures per week
Patient 7, treated for 72 weeks, vs baseline
  reduction in focal seizures without impairment over the treatment period: 40.2%
Patient 8, 4 weeks, CBD 20.0 mg/kg/day, baseline 280.0
  Seizure frequency: Tonic: 6.0 seizures per week
Patient 8, 8 weeks, CBD 25.0 mg/kg/day, baseline 280.0
  Seizure frequency: Tonic: 5.0 seizures per week
Patient 8, 12 weeks, CBD 25.0 mg/kg/day
  Seizure frequency: Atonic: 12.0 seizures per week
Patient 8, 12 weeks, CBD 25.0 mg/kg/day, baseline 280.0
  Seizure frequency: Tonic: 60.0 seizures per week
Patient 8, 16 weeks, CBD 25.0 mg/kg/day
  Seizure frequency: Atonic: 24.0 seizures per week
Patient 8, 16 weeks, CBD 25.0 mg/kg/day, baseline 280.0
  Seizure frequency: Tonic: 56.0 seizures per week
Patient 8, 24 weeks, CBD 25.0 mg/kg/day
  Seizure frequency: Atonic: 4.0 seizures per week
Patient 8, 24 weeks, CBD 25.0 mg/kg/day, baseline 280.0
  Seizure frequency: Tonic: 32.0 seizures per week
Patient 8, 36 weeks, CBD 10.0 mg/kg/day
  Seizure frequency: Atonic: 4.0 seizures per week
Patient 8, 36 weeks, CBD 10.0 mg/kg/day, baseline 280.0
  Seizure frequency: Tonic: 896.0 seizures per week
Patient 8, treated for 36 weeks, vs baseline
  reduction in atonic seizures over the treatment period: 95.0%
All patients, atonic, tonic and focal without impairment seizures
  reductions in seizures over period of treatment, overall: 40.2-100.0%
One patient (patient 5), after 12 months of CBD treatment
  seizure freedom from tonic seizures: seizure free of tonic seizures; also recorded: completely seizure free
Patients with Cortical Dysplasia and Cortical Brain Malformation
  effect on frequency of atonic, tonic and focal without impairment seizures (in words): effective in reducing the frequency; also recorded: significantly reduce the number of seizures; also recorded: significant reduction
